Assays:
Assay type in all cases: in vivo
[1] = system: horseweed (Erigeron canadensis); test: Test C postemergence, horseweed; conditions: visual injury, 0 to 100 scale (0 no effect, 100 complete control)
Description: (§1) Seeds of plant species selected from blackgrass (Alopecurus myosuroides), corn (Zea mays), foxtail, giant (giant foxtail, Setaria faberi), goosegrass (Eleusine indica), kochia (Bassia scoparia), oat, wild (wild oat, Avena fatua), pigweed, palmer (palmer amaranth, Amaranthus palmeri), ragweed (common ragweed, Ambrosia artemisiifolia), ryegrass, Italian (Italian ryegrass, Lolium multiflorum), soybean (Glycine max) and wheat (Triticum aestivum) were planted into a blend of loam soil and sand and treated preemergence with a directed soil spray using test chemicals formulated in a non-phytotoxic solvent mixture which included a surfactant.
(§2) At the same time, plants selected from these crop and weed species and also galium (catchweed bedstraw, Galium aparine) and horseweed (Erigeron canadensis) were planted in pots containing the same blend of loam soil and sand and treated with postemergence applications of test chemicals formulated in the same manner. Plants ranged in height from 2 to 10 cm and were in the one- to two-leaf stage for the postemergence treatment. Treated plants and untreated controls were maintained in a greenhouse for 10 or 12 days, after which time all treated plants were compared to untreated controls and visually evaluated for injury. Plant response ratings, summarized in Table A, are based on a 0 to 100 scale where 0 is no effect and 100 is complete control. A dash (-) response means no test result.

[2] = system: foxtail, giant (giant foxtail, Setaria faberi); test: Test C postemergence, giant foxtail; conditions: visual injury, 0 to 100 scale (0 no effect, 100 complete control)
Description: as §1, §2

[3] = system: oat, wild (wild oat, Avena fatua); test: Test C postemergence, wild oat; conditions: visual injury, 0 to 100 scale (0 no effect, 100 complete control)
Description: as §1, §2

[4] = system: corn (Zea mays); test: Test C preemergence, corn; conditions: 0 is no effect, 100 is complete control
Description: as §1, §2

[5] = system: soybean (Glycine max); test: Test C postemergence, soybean; conditions: visual injury, 0 to 100 scale (0 no effect, 100 complete control)
Description: as §1, §2

[6] = system: rice (Oryza sativa); test: Test D flooded paddy test, rice; set-up: key: 0 = no effect, 100 = complete control; conditions: 250 g ai/ha, Flood; applied to paddy water at 2-leaf stage; visual rating after 13 days; scale 0 (no effect) to 100 (complete control)
Protocol: (§3) Plant species in the flooded paddy test selected from barnyardgrass (Echinochloa crusgalli), ducksalad (Heteranthera limosa), rice (Oryza sativa), and sedge, umbrella (small-flower umbrella sedge, Cyperus difformis) were grown to the 2-leaf stage for testing. At time of treatment, test pots were flooded to 3 cm above the soil surface, treated by application of test compounds directly to the paddy water, and then maintained at that water depth for the duration of the test. Treated plants and controls were maintained in a greenhouse for 13 days, after which time all species were compared to controls and visually evaluated. Plant response ratings, summarized in Table B, are based on a scale of 0 to 100 where 0 is no effect and 100 is complete control. A dash (-) response means no test result.

[7] = system: sedge, umbrella (small-flower umbrella sedge, Cyperus difformis); test: Test D flooded paddy test, umbrella sedge; set-up: key: 0 = no effect, 100 = complete control; conditions: 250 g ai/ha, Flood; applied to paddy water at 2-leaf stage; visual rating after 13 days; scale 0 (no effect) to 100 (complete control)
Protocol: as §3

[8] = system: blackgrass (Alopecurus myosuroides); test: Test C postemergence, blackgrass; conditions: visual injury, 0 to 100 scale (0 no effect, 100 complete control)
Description: as §1, §2

[9] = system: ducksalad (Heteranthera limosa); test: Test D flooded paddy test, ducksalad; set-up: key: 0 = no effect, 100 = complete control; conditions: 250 g ai/ha, Flood; applied to paddy water at 2-leaf stage; visual rating after 13 days; scale 0 (no effect) to 100 (complete control)
Protocol: as §3

[10] = system: ragweed (common ragweed, Ambrosia artemisiifolia); test: Test C postemergence, ragweed; conditions: visual injury, 0 to 100 scale (0 no effect, 100 complete control)
Description: as §1, §2

[11] = system: barnyardgrass (Echinochloa crusgalli); test: Test D flooded paddy test, barnyardgrass; set-up: key: 0 = no effect, 100 = complete control; conditions: 250 g ai/ha, Flood; applied to paddy water at 2-leaf stage; visual rating after 13 days; scale 0 (no effect) to 100 (complete control)
Protocol: as §3

[12] = system: wheat (Triticum aestivum); test: Test C postemergence, wheat; conditions: visual injury, 0 to 100 scale (0 no effect, 100 complete control)
Description: as §1, §2

[13] = system: wheat (Triticum aestivum); test: Test C preemergence, wheat; conditions: 0 is no effect, 100 is complete control
Description: as §1, §2

[14] = system: ryegrass, Italian (Italian ryegrass, Lolium multiflorum); test: Test C preemergence, Italian ryegrass; conditions: 0 is no effect, 100 is complete control
Description: as §1, §2

[15] = system: blackgrass (Alopecurus myosuroides); test: Test C preemergence, blackgrass; conditions: 0 is no effect, 100 is complete control
Description: as §1, §2

[16] = system: pigweed, palmer (palmer amaranth, Amaranthus palmeri); test: Test C postemergence, palmer amaranth; conditions: visual injury, 0 to 100 scale (0 no effect, 100 complete control)
Description: as §1, §2

[17] = system: ryegrass, Italian (Italian ryegrass, Lolium multiflorum); test: Test C postemergence, Italian ryegrass; conditions: visual injury, 0 to 100 scale (0 no effect, 100 complete control)
Description: as §1, §2

[18] = system: kochia (Bassia scoparia); test: Test C preemergence, kochia; conditions: 0 is no effect, 100 is complete control
Description: as §1, §2

[19] = system: kochia (Bassia scoparia); test: Test C postemergence, kochia; conditions: visual injury, 0 to 100 scale (0 no effect, 100 complete control)
Description: as §1, §2

[20] = system: corn (Zea mays); test: Test C postemergence, corn; conditions: visual injury, 0 to 100 scale (0 no effect, 100 complete control)
Description: as §1, §2

[21] = system: pigweed, palmer (palmer amaranth, Amaranthus palmeri); test: Test C preemergence, palmer amaranth; conditions: 0 is no effect, 100 is complete control
Description: as §1, §2

[22] = system: goosegrass (Eleusine indica); test: Test C postemergence, goosegrass; conditions: visual injury, 0 to 100 scale (0 no effect, 100 complete control)
Description: as §1, §2

[23] = system: galium (catchweed bedstraw, Galium aparine); test: Test C postemergence, galium; conditions: visual injury, 0 to 100 scale (0 no effect, 100 complete control)
Description: as §1, §2

[24] = system: ragweed (common ragweed, Ambrosia artemisiifolia); test: Test C preemergence, ragweed; conditions: 0 is no effect, 100 is complete control
Description: as §1, §2

[25] = system: goosegrass (Eleusine indica); test: Test C preemergence, goosegrass; conditions: 0 is no effect, 100 is complete control
Description: as §1, §2

[26] = system: oat, wild (wild oat, Avena fatua); test: Test C preemergence, wild oat; conditions: 0 is no effect, 100 is complete control
Description: as §1, §2

[27] = system: foxtail, giant (giant foxtail, Setaria faberi); test: Test C preemergence, giant foxtail; conditions: 0 is no effect, 100 is complete control
Description: as §1, §2

[28] = system: soybean (Glycine max); test: Test C preemergence, soybean; conditions: 0 is no effect, 100 is complete control
Description: as §1, §2

## Cc1c(NS(=O)(=O)C(F)(F)F)cc(N2CCC(OCC3CCC3)C2=O)c(C)c1F (stereo not shown) [Compound 64]
[1]; 31 g ai/ha Postemergence
  Horseweed plant response rating: 10
[1]; 125 g ai/ha Postemergence
  Horseweed plant response rating: 60
[2]; 31 g ai/ha Postemergence
  Foxtail, Giant plant response rating: 0
[2]; 125 g ai/ha Postemergence
  Foxtail, Giant plant response rating: 20
[3]; 31 g ai/ha Postemergence
  Oat, Wild plant response rating: 0
[3]; 125 g ai/ha Postemergence
  Oat, Wild plant response rating: 10
[4]; 31 g ai/ha Preemergence
  Plant response rating (0 to 100 scale), Corn: 10
[4]; 125 g ai/ha Preemergence
  Plant response rating (0 to 100 scale), Corn: 60
[5]; 31 g ai/ha Postemergence
  Soybean plant response rating: 60
[5]; 125 g ai/ha Postemergence
  Soybean plant response rating: 90
[6]
  Plant response rating, Rice: 15
[7]
  Plant response rating, Sedge, Umbrella: 95
[8]; 31 g ai/ha Postemergence
  Blackgrass plant response rating: 0
[8]; 125 g ai/ha Postemergence
  Blackgrass plant response rating: 20
[9]
  Plant response rating, Ducksalad: 80
[10]; 31 g ai/ha Postemergence
  Ragweed plant response rating: 30
[10]; 125 g ai/ha Postemergence
  Ragweed plant response rating: 70
[11]
  Plant response rating, Barnyardgrass: 25
[12]; 31 g ai/ha Postemergence
  Wheat plant response rating: 0
[12]; 125 g ai/ha Postemergence
  Wheat plant response rating: 20
[13]; 31 g ai/ha Preemergence
  Plant response rating (0 to 100 scale), Wheat: 20
[13]; 125 g ai/ha Preemergence
  Plant response rating (0 to 100 scale), Wheat: 70
[14]; 31 g ai/ha Preemergence
  Plant response rating (0 to 100 scale), Ryegrass, Italian: 50
[14]; 125 g ai/ha Preemergence
  Plant response rating (0 to 100 scale), Ryegrass, Italian: 90
[15]; 31 g ai/ha Preemergence
  Plant response rating (0 to 100 scale), Blackgrass: 20
[15]; 125 g ai/ha Preemergence
  Plant response rating (0 to 100 scale), Blackgrass: 70
[16]; 31 g ai/ha Postemergence
  Pigweed, Palmer plant response rating: 60
[16]; 125 g ai/ha Postemergence
  Pigweed, Palmer plant response rating: 70
[17]; 31 g ai/ha Postemergence
  Ryegrass, Italian plant response rating: 0
[17]; 125 g ai/ha Postemergence
  Ryegrass, Italian plant response rating: 20
[18]; 31 g ai/ha Preemergence
  Plant response rating (0 to 100 scale), Kochia: 70
[18]; 125 g ai/ha Preemergence
  Plant response rating (0 to 100 scale), Kochia: 90
[19]; 31 g ai/ha Postemergence
  Kochia plant response rating: 50
[19]; 125 g ai/ha Postemergence
  Kochia plant response rating: 100
[20]; 31 g ai/ha Postemergence
  Corn plant response rating: 0
[20]; 125 g ai/ha Postemergence
  Corn plant response rating: 10
[21]; 31 g ai/ha Preemergence
  Plant response rating (0 to 100 scale), Pigweed, Palmer: 100
[21]; 125 g ai/ha Preemergence
  Plant response rating (0 to 100 scale), Pigweed, Palmer: 100
[22]; 31 g ai/ha Postemergence
  Goosegrass plant response rating: 30
[22]; 125 g ai/ha Postemergence
  Goosegrass plant response rating: 70
[23]; 31 g ai/ha Postemergence
  Galium plant response rating: 100
[23]; 125 g ai/ha Postemergence
  Galium plant response rating: 100
[24]; 31 g ai/ha Preemergence
  Plant response rating (0 to 100 scale), Ragweed: 90
[24]; 125 g ai/ha Preemergence
  Plant response rating (0 to 100 scale), Ragweed: 100
[25]; 31 g ai/ha Preemergence
  Plant response rating (0 to 100 scale), Goosegrass: 70
[25]; 125 g ai/ha Preemergence
  Plant response rating (0 to 100 scale), Goosegrass: 100
[26]; 31 g ai/ha Preemergence
  Plant response rating (0 to 100 scale), Oat, Wild: 20
[26]; 125 g ai/ha Preemergence
  Plant response rating (0 to 100 scale), Oat, Wild: 90
[27]; 31 g ai/ha Preemergence
  Plant response rating (0 to 100 scale), Foxtail, Giant: 100
[27]; 125 g ai/ha Preemergence
  Plant response rating (0 to 100 scale), Foxtail, Giant: 100
[28]; 31 g ai/ha Preemergence
  Plant response rating (0 to 100 scale), Soybean: 40
[28]; 125 g ai/ha Preemergence
  Plant response rating (0 to 100 scale), Soybean: 90

— US20240158348A1, “HERBICIDAL CYCLIC AMIDES N-SUBSTITUTED WITH A HALOALKYLSULFONYLANILIDE GROUP” (FMC Corporation, priority 2021, published 2024)
